Results reported in US20170172944A1, “METHODS OF TREATING MELANOMA” (Mitchell Woods Pharmaceuticals, Inc., priority 2014, published 2017).

Legend:
Assay type in all cases: cell-based, human
UACC-903 cells = assay: Proliferation assay (xCELLigence RTCA), UACC-903; conditions: UACC-903 cells (lacking EGFR)
Method: (§1) UACC-647, M93-047 and UACC-903 cells were seeded out on E-Plates and allowed to settle. Cells were stimulated with MNF. Cellular proliferation and adherence was measured every 15 min using xCELLigence RTCA station.
as §1, with “minutes” for “min”, “station. Serum-starved UACC647 cells were incubated with range of (R,R′)-MNF concentrations for 24 hours and the levels of [3H]thymidine incorporation were measured.” for “station.”

[1] = tested on: eukaryotic elongation factor 2 (eEF2) in UACC-647 cells; assay: eEF2 phosphorylation (Western blot), UACC-647; conditions: UACC-647, serum starved 3 hours, 1 fM to 10 μM, 15 minutes
Method: (§2) Cells were lysed with RIPA buffer containing EGTA and EDTA (Boston BioProducts, Ashland, Mass.). The lysis buffer was mixed with a protease inhibitor cocktail (Sigma-Aldrich). Protein concentrations were measured using the bicinchoninic acid reagent (Thermo-Pierce Biotechnology, Inc., Rockford, Ill.). Proteins (20 μg/well) were separated on 4-12% precast gels (Invitrogen, Carlsbad, Calif.) using SDS-polyacrylamide gel electrophoresis under reducing conditions and were electrophoretically transferred onto polyvinylidene fluoride membrane (Invitrogen). Western blots were performed according to standard methods. The visualization of immunoreactive bands was performed using the ECL Plus Western Blotting Detection System (GE Healthcare, NJ) and their quantification was done by volume densitometry using Image J software and normalization to β-actin. […]
(§3) UACC-647, M93-047 and UACC-903 cells were serum starved for 3 hours and subjected to concentration gradient of (R,R′)-MNF (1 fM to 10 μM) or vehicle (DMSO, 0.1%) for 15 minutes. […] Proteins of interest were detected using (phospho)specific antibodies of rabbit origin and visualized by chemiluminescence. […] Levels of total and phosphorylated form of eEF2 were quantified in (R,R′)-MNF-treated cells by means of volume densitometry.

UACC647 cells [2] = assay: [3H]-thymidine incorporation assay; conditions: serum-starved UACC647 cells, 24 hours
Method: [^3H]-Thymidine Incorporation Assay.
Cells were seeded in 12-well plates at approximately 50,000 cells/well and incubated at 37° C. After 24 hours, the wells were rinsed with PBS and replaced with serum-free medium containing the appropriate concentration of the test compounds. After another 24-hour incubation at 37° C., 1 μCi of [^3H]-thymidine was added to each well and incubated at 37° C. for 16 hours. [^3H]-Thymidine incorporation into DNA was monitored after the cells were washed twice with PBS and then lysed in 600 μl of 0.1 N NaOH for 30 minutes with shaking. The lysate was then mixed with 3 mL of liquid scintillation cocktail (Beckman Coulter, Inc., Brea, Calif.), and radioactivity was measured by liquid scintillation counting using Beckman Coulter LS6000IC Scintillation Counter. Data are shown as CPM incorporated compared to the control cells.
as §1, with “minutes” for “min”, “station. Serum-starved UACC647 cells were incubated with range of (R,R′)-MNF concentrations for 24 hours and the levels of [3H]thymidine incorporation were measured.” for “station.”

M93-047 cells [3] = assay: Scratch wound healing assay, M93-047; conditions: M93-047, 100 pM to 10 μM, 24 hours
Method: (§4) A scratch wound was made with a cell scraper. Cells were pictured using Axiovert 200 microscope and AxioCam HRc camera. (Carl Zeiss)
(§5) UACC-647, M93-047 and UACC-903 cells were cultured until confluency. Uniform scratch wounds were made on the monolayer cultures using cell scraper and the cells were challenge with (R,R′)-MNF (100 pM to 10 μM) or vehicle (DMSO, 0.1%). Images were captured at the onset of the treatment and after 24 hours.

UACC647 cells [4] = assay: Proliferation assay (xCELLigence RTCA), UACC647; conditions: UACC647, E-Plates, measured every 15 minutes
Method: as §1
as §1, with “minutes” for “min”, “station. Serum-starved UACC647 cells were incubated with range of (R,R′)-MNF concentrations for 24 hours and the levels of [3H]thymidine incorporation were measured.” for “station.”

M93-047 cells [5] = assay: Migration and invasion towards 10% FBS (xCELLigence RTCA), M93-047
Method: (§6) Assays were performed using xCELLigence RTCA Analyzer. Serum-starved cells were allowed to migrate or invade towards 10% FBS via bare microporous PET membrane or Matrigel-coated membrane, respectively.
(§7) Migration and Invasion Assay.
(§8) Migration and invasion of UACC-647, M93-047 and UACC-903 towards 10% FBS were monitored using xCELLigence system
(§9) Serum-starved UACC-647, M93-047 and UACC-903 cells were plated onto unmodified or Matrigel-coated CIM-Plates. The cells were treated with (R,R′)-MNF or vehicle (DMSO, 0.1%). Migration and invasion towards 10% FBS was monitored using xCELLigence RTCA station. Times of half-maximal infiltration of the cells towards serum were calculated and plotted against (R,R′)-MNF concentration.

UACC-647 cells [6] = assay: Scratch wound healing assay, UACC-647; conditions: UACC-647, 100 pM to 10 μM, 24 hours
Method: as §4, §5

[7] = tested on: phosphorylated ERK in M93-047 cells; assay: Phosphorylated ERK levels, M93-047; conditions: M93-047, serum starved 3 hours, 15 minutes
Method: (§10) Levels of ERK1/2 and its phosphorylated forms were determined using PathScan ELISA kits according to manufacturer's protocol (Perkin Elmer Alphascreen Surefire ERK1/2 assay kit, cat no. TGRES500).
(§11) UACC-647, M93-047 or UACC-903 cells were serum starved for 3 hours and subjected to compound of interest or vehicle for 15 minutes.

[8] = tested on: phosphorylated ERK in UACC-647 cells; assay: Phosphorylated ERK levels, UACC-647
Method: as §10, §11

M93-047 cells [9] = assay: Proliferation assay (xCELLigence RTCA), M93-047; conditions: M93-047, E-Plates, measured every 15 minutes
Method: as §1
as §1, with “minutes” for “min”, “station. Serum-starved UACC647 cells were incubated with range of (R,R′)-MNF concentrations for 24 hours and the levels of [3H]thymidine incorporation were measured.” for “station.”

UACC-647 cells [10] = assay: Migration and invasion towards 10% FBS (xCELLigence RTCA), UACC-647; conditions: for migratory rate / effect of pretreatment on anti-migratory activity of MNF (100 nM): UACC-647, H-89 20 μM; for migratory rate: MNF 100 nM, Forskolin 10 μM; for effect of pretreatment on anti-migratory activity of MNF (100 nM): ICI 118,551 50 nM
Method: as §6, §7, §8, §9
ICI 118,551 and H-89 pretreatment blocked inhibitory activity of (R,R′)-MNF on UACC-647, while Forskolin mimicked (R,R′)-MNF. UACC-647 were serum-starved, pretreated with ICI 118,551, Forskolin, H-89 or DMSO and plated onto unmodified CIM-Plates. Migration towards 10% FBS was monitored using xCELLigence RTCA station. […] Forskolin (activator of adenylyl cyclase, 10 μM) mimicked MNF (100 nM). […] Pretreatment with H-89 blocked anti-migratory activity of MNF (100 nM).

[11] = tested on: melanoma cells (UACC-647, M93-047 and UACC-903); assay: [35S] methionine labeling, de novo protein synthesis; conditions: 10 fM, 10 pM, 10 nM for 15 minutes, then [35S]Met/Cys labeling 30 minutes
Method: [^35S] Methionine Labeling.
Serum starved cells were incubated in serum-free medium without methionine and cysteine and treated with (R,R′)-MNF. Then, [^35S]Met/Cys labeling was carried out. Cell lysates were resolved by SDS-polyacrylamide gel electrophoresis and transferred onto PVD membrane, and autoradiography was performed. The membrane was probed with anti-β-actin antibody to confirm equal protein loading.
Serum starved (3 hours) UACC-647, M93-047 and UACC-903 cells were washed with PBS and incubated in serum-free medium without methionine and cysteine. Then, cells were treated with (R,R′)-MNF (10 fM, 10 pM, 10 nM) or incubated with vehicle (DMSO, 0.1%) for 15 minutes followed by [35S]Met/Cys labeling for 30 minutes. Cell lysates were resolved by SDS-PAGE and transferred onto PVD membrane, and autoradio-graphy was performed. The membrane was probed with anti-β-actin antibody to confirm equal protein loading. Amounts of de novo synthesized proteins were evaluated by means of volume densitometry. Obtained values were normalized to β-actin levels.

[12] = tested on: phosphorylated MEK in UACC-647 cells; assay: Phosphorylated MEK levels, UACC-647
Method: (R,R′)-MNF decreased basal phosphorylation levels of ERK and MEK. UACC-647, M93-047 or UACC-903 cells were serum starved for 3 hours and subjected to compound of interest or vehicle for 15 minutes. […] Cell pretreatment with 50 nM ICI 118,551 abolished MNF-evoked drop in phospho ERK levels in UACC647.

[13] = tested on: eukaryotic elongation factor 2 (eEF2) in M93-047 cells; assay: eEF2 phosphorylation (Western blot), M93-047; conditions: M93-047, serum starved 3 hours, 1 fM to 10 μM, 15 minutes
Method: as §2, §3

| Compound | growth (UACC-903 cells) | rapid phosphorylation of eEF2 [1] | IC50 (UACC647 cells [2]; Homo sapiens) | inhibition of incorporation of radiolabelled thymidine (UACC647 cells [2]; range of concentrations) | motility (scratch wound) (M93-047 cells [3]) | proliferation (UACC647 cells [4]) | invasion towards 10% FBS (M93-047 cells [5]; M93-047, Matrigel-coated CIM-Plates) | migration towards 10% FBS (M93-047 cells [5]; M93-047, unmodified CIM-Plates) | motility (scratch wound) (UACC-647 cells [6]) | nadir of U-shaped dose-response curve of phosphorylated ERK levels [7] | nadir of U-shaped dose-response curve of phosphorylated ERK levels ([8]; UACC 647, serum starved 3 hours, 15 minutes) | proliferation (M93-047 cells [9]) | invasion towards 10% FBS (UACC-647 cells [10]; UACC-647, Matrigel-coated CIM-Plates) | migration towards 10% FBS (UACC-647 cells [10]; UACC-647, unmodified CIM-Plates) | migratory rate (UACC-647 cells [10]) | de novo protein synthesis [11] | levels of phosphorylated MEK [12] | rapid phosphorylation of eEF2 [13] | effect of pretreatment on anti-migratory activity of MNF (100 nM) (UACC-647 cells [10]) | effect of pretreatment on MNF-evoked drop in phospho ERK levels ([8]; UACC647, pretreatment 50 nM) |
| --- | --- | --- | --- | --- | --- | --- | --- | --- | --- | --- | --- | --- | --- | --- | --- | --- | --- | --- | --- | --- |
| COc1ccc(C[C@@H](C)NC[C@H](O)c2cc(O)cc(O)c2)c2ccccc12 [(R,R′)-MNF, (R,R′)-4′-methoxy-1-naphthylfenoterol] | did not inhibit | induce rapid phosphorylation | 0.136 µM | 38±3.67% | inhibit motility | inhibit proliferation | inhibit | inhibit migration | inhibit motility | 1 nM | 1 nM | inhibit proliferation | inhibit | inhibit migration | decreased migratory rate | inhibit | decreased | induce rapid phosphorylation | – | – |
| O=S(=O)(NCCNC/C=C/c1ccc(Br)cc1)c1cccc2cnccc12 [H-89, reference compound] | – | – | – | – | – | – | – | – | – | – | – | – | – | – | increased migratory rate | – | – | – | blocked | – |
| Cc1ccc(OCC(O)C(C)NC(C)C)c2c1CCC2 (stereo not shown) [ICI 118,551, 3-(isopropylamino)-1-[(7-methyl-4-indanyl)oxy]butan-2-ol, reference compound] | – | – | – | – | – | – | – | – | – | – | – | – | – | – | – | – | – | – | completely abolished | abolished |
